Assay results as given in patent US20260055143A1, “HIGH AFFINITY VARIANTS OF SH2 DOMAINS” (Axoiya Inc., priority 2023, published 2026).

System: PPPT{pTyr}TEVDP
Test: Competitive ELISA, Ptn11_C variants
Type: binding
Description: Competitive and non-competitive phage ELISAs were performed as previously described with minor modifications to the protocol. Peptide sequences used for these analyses can be found in Table 4.
Streptavidin (50 ng/well in TBS (50 mM Tris-HCl pH 8.0, 150 mM NaCl) was coated onto MAXISORP plates (Thermo Scientific). Phage binding was detected using HRP conjugated anti-M13 secondary antibody (1/2000 dilution, GE Healthcare) in TBS buffer containing 0.05% Tween-20 (TBT buffer). Phage binding was detected using the 3,3′,5,5′-tetramethylbenzidine (TMB) (Thermo Fisher Scientific) chromogenic substrate. Plates were read using a PowerWave XS microplate reader (BioTek).
Competitive phage-ELISAs were used to determine binding affinity of SH2 superbinders for their cognate target. ELISAs were performed as previously described, biotinylated and phosphorylated peptides were immobilized on plates at the concentration of 0.2 μM, and available binding sites on streptavidin were blocked by adding 25 μl/well of 50 μM D-biotin in TBS. […] Data were plotted using Prism 6 software (GraphPad Software Inc) and affinity of SH2 domains was inferred from determination of the half maximal inhibition concentration (IC50).
Peptides listed in Table 5 were used to assay for binding affinity of each corresponding SH2 domain.

change in binding (αA-2-Arg mutation alone): not sufficient to enhance the binding
Substance: Ptn11_C^wt: wild-type PTN11_C SH2 domain, SEQ ID 57
change in affinity (with either the sSrc or sFes graft): no improvement in affinity
